Measured values as given in US11344510B2, “Arylcyclohexylamine derivatives and their use in the treatment of psychiatric disorders” (Gilgamesh Pharmaceuticals, Inc., priority 2019, dated 2022).
pIC50, pKi: −log10 of the molar value. Structures can show the parent of a compound that is named as a salt.

Legend:
[1] = target: MK-801 binding site of the N-methyl-D-aspartate receptor (NMDAR); experiment: NMDAR radioligand binding with [3H]MK-801, Method B; set-up: species or system Sprague Dawley rat; conditions: for pKi: MK-801 site, Method B, male Sprague Dawley rat cortex, 5.0 nM [3H]MK-801, read-out: NMDAR Ki ± SEM
Method: Radioligand Binding—Method B. Affinity of the test compounds for NMDAR was determined in radioligand binding experiments with [^3H]MK-801 by WuXi AppTec (Hong Kong) Limited, under the conditions described in Table 13.

[2] = target: T1, vesicular monoamine transporter 2 (VMAT2) (Homo sapiens, UniProt Q05940); experiment: Fluorescent substrate uptake inhibition, VMAT2; assay type: cell-based; conditions: for inhibition at 10 µM: transfected cells
T1 construct: expressed in transfected cells

[3] = MLM stability (High Activity); assay type: in vitro ADME, BALB/c mice; conditions: male, BALB/c, mouse, liver microsomes, pH 7.4, Condition 2 (High Activity), 1.0 mg protein/mL
Summary of the method: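 Pooled male BALB/c mouse liver microsomes (1.0 mg/mL) in 100 mM PBS pH 7.4 with NADPH-regenerating system; compound 1 μM, 37 °C, five time points over 60 min, duplicate; NADPH-free controls. Parent remaining by LC-MS/MS; kel, t1/2 and Clint from linear regression of ln(AUC) versus time.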

[4] = HLM stability (High Activity); assay type: in vitro ADME; conditions: both sexes, human, liver microsomes, pH 7.4, Condition 2 (High Activity), 1.0 mg protein/mL
Summary of the method: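 Pooled male and female human liver microsomes, 1.0 mg protein/mL, in 100 mM PBS pH 7.4 with NADPH-regenerating system; compound 1 μM at 37° C, five time points over 60 min. Parent remaining by LC-MS/MS; kel, t1/2 and Clint from linear regression of ln(AUC) versus time.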

T1 sequence (Q05940 whole entry, species assumed): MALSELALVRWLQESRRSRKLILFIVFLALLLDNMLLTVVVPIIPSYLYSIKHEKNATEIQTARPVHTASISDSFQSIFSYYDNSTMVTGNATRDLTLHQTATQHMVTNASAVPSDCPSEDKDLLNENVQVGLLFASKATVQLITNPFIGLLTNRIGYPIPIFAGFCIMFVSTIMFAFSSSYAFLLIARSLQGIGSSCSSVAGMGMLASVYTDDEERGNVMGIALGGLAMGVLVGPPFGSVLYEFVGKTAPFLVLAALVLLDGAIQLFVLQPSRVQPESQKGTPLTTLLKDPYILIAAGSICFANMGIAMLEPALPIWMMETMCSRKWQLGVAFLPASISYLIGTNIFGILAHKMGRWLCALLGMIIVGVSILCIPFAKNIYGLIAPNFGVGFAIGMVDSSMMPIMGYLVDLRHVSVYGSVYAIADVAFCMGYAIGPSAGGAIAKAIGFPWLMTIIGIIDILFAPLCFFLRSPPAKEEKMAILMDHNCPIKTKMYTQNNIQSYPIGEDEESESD

SMILES | pKi [1] | inhibition at 10 µM [2] [%] | half-life at 1 μM [3] [h] | microsomal CLint at 1 μM [3] [µL/min/mg] | half-life at 1 μM [4] [h] | microsomal CLint at 1 μM [4] [µL/min/mg] | pIC50 [2] | NMDAR binding affinity, comparison in words ([1]; 14R vs rac-ketamine, (R)-ketamine, (S)-ketamine and 14S, R enantiomers vs S enantiomers or racemates)
Cc1ccccc1[C@]1(N)CCCCC1=O [Compound 114R, (R)-2-amino-2-(o-tolyl)cyclohexan-1-one] | < 4.64 | -14 | – | – | – | – | – | –
Cc1ccccc1[C@@]1(N)CCCCC1=O [Compound 114S, (S)-2-amino-2-(o-tolyl)cyclohexan-1-one] | 5.60 | -15.9 | – | – | – | – | – | –
N[C@]1(c2ccccc2)CCCCC1=O [Compound 11S, (S)-2-amino-2-phenyl-cyclohexan-1-one] | 5.92 | -17.4 | 3.62 | 3 | 3.25 | 4 | – | –
O=C1CCCCC1(c1ccccc1)N1CCCC1 (racemic) [Compound 27rac, 2-phenyl-2-(pyrrolidin-1-yl)cyclohexan-1-one] | 5.96 | 60.4 | 0.583 | 20 | 3.87 | 3 | 4.95 | –
O=C1CCCC[C@@]1(c1ccccc1)N1CCC1 [Compound 84S, (S)-2-(azetidin-1-yl)-2-phenyl-cyclohexan-1-one] | 5.89 | 10.9 | 0.322 | 36 | 2.76 | 4 | < 4.00 | –
CN[C@]1(c2ccccc2)CCCCC1=O [Compound 14S, (S)-2-(methylamino)-2-phenylcyclohexan-1-one] | 6.16 | 7.4 | 4.38 | 3 | 6.18 | 2 | – | –
COCCNC1(c2ccccc2)CCCCC1=O (racemic) [Compound 29rac, 2-((2-methoxyethyl)amino)-2-phenylcyclohexan-1-one] | 5.36 | – | 0.283 | 41 | 2.33 | 5 | – | –
[2H]C([2H])([2H])N[C@@]1(c2ccccc2)CCCCC1=O [Compound 88R, (R)-2-((methyl-d3)amino)-2-phenylcyclohexan-1-one] | 5.47 | 20.2 | 1.76 | 7 | 2.92 | 4 | – | –
N[C@@]1(c2ccccc2)CCCCC1=O [Compound 11R, (R)-2-amino-2-phenyl-cyclohexan-1-one] | 5.03 | 14.4 | 2.82 | 4 | 3.31 | 3 | – | –
O=C1CCCC[C@]1(c1ccccc1)N1CCC1 [Compound 84R, (R)-2-(azetidin-1-yl)-2-phenyl-cyclohexan-1-one] | 5.64 | 14.1 | 0.378 | 30 | 2.75 | 4 | 4.01 | –
CN[C@]1(c2cccc(F)c2)CCCCC1=O [Compound 19S, (5)-2-(3-fluorophenyl)-2-(methylamino)cyclohexan-1-one] | 5.68 | -0.87 | 1.01 | 11 | 1.59 | 7 | – | –
CNC1(c2ccccc2Cl)CCCCC1=O (racemic) [rac-ketamine, racemic ketamine, reference compound] | – | – | 0.155 | 75 | 0.613 | 19 | – | –
CN[C@@]1(c2ccccc2)CCCCC1=O [Compound 14R, (R)-2-(methylamino)-2-phenylcyclohexan-1-one] | 5.35 | 6.2 | 3.28 | 4 | 9.77 | 1 | – | weaker NMDAR binding
CNC1(c2ccccc2)CCCCC1=O (racemic) [Compound 14rac, 2-(methylamino)-2-phenylcyclohexan-1-one hydrochloride] | – | – | – | – | 6.12 | 2 | – | –
